Values of other authors as cited in patent US10434198B2, “Radiopharmaceutical solutions with advantageous properties” (Sciencons AS, priority 2015, dated 2019).

Tests used:
MDA-MB-231 (SA) = settings: 250 kBq/kg (3.6×10^11 ^223Ra atoms), Suominen et al. 2013
[1] = 10 minutes after injection

Row | Structure (SMILES) | survival advantage (MDA-MB-231 (SA)) [%] | reduction of radium in blood [1] [%]
1 | [Cl][223Ra][Cl] [^223Ra, radium-223 dichloride] | 43 | 
2 | [Ra] [radium] |  | 88
